Laboratory results published in patent US11426389B2, “Compositions and methods for promoting hematopoietic stem cell regeneration” (priority 2017, dated 2022).

How the values were obtained:
ShCamkk2 M1 cells = assay type: cell-based
Method: FIG. 6A-6F. CaMKK2 couples radiation signaling with the AMPK anti-proliferative pathway. HSPC (KL+KSL) were isolated from WT and Camkk2 null (KO) mice and irradiated in vitro with 400 cGy or left non-irradiated. Cells were then cultured for 1-h in regular medium. Protein expression was normalized by actin and expressed as fold change over basal (non-irradiated WT HSPC), and is reported on the top of each lane. (A) Immunoblots of CaMKK2, phospho-CaMK1 (pCaMK1) and actin. (B) Immunoblots of Tp53, phosphorylated AMPK and S6rp (pAMPK and pS6rp, respectively). (C-E) M1 myeloid progenitor cells were transduced with lentiviral vectors expressing a short hairpin sequence for silencing Camkk2 or a control sequence (ShCamkk2 and Ctrl, respectively). Ctrl and ShCamkk2 M1 cells were then irradiated or left non-irradiated. One-hour after irradiation, M1 cell protein expression was assessed by immunoblotting. (C) Expression of CaMKK2 and actin. […] Cell number was determined using a colorimetric assay, and the results are expressed as fold change of non-irradiated cells cultured in the absence of AICAR. […]
To determine the functional effects of Camkk2 deficiency in M1 cells, control and ShCamkk2 M1 cells were exposed to 300 cGy with or without a cell permeable AMPK agonist and the number of live M1 cells were determined 24 h after irradiation.

HSPC = experiment: Bone marrow cell and HSPC recovery in 500 cGy TBI wild-type mice treated with STO-609; assay type: in vivo; conditions: 9 days after TBI, vs vehicle-treated mice
Method: (§1) FIGS. 7A-7D. Pharmacologic inhibition of CaMKK2 enhances hematopoietic regeneration in vivo. Treatment with STO-609, a CaMKK2 inhibitor, mitigates the acute hematopoietic radiation syndrome. (A) Scheme of irradiation and STO-609 treatment in wild type mice. (B) Survival of 900 cGy TBI wild-type mice treated with vehicle or STO-609 (n=10 per group). Wild-type mice were irradiated with 500 cGy TBI and were then treated with STO-609 or vehicle after 24 h. Nine days after TBI, the mice were killed and bones were removed. The BM cells were counted and stained to identify HSPC (BMC). (C) Representative staining and gating strategy. (D) Absolute number of BMC and HSPC (upper and lower graph, respectively). The results are expressed as the fold changes over the absolute number of cells recovered form vehicle-treated wild type mice, and are normalized for one femur. Two independent experiments have been combined (total number of mice-9 per group). Bars graph reports mean±S.E.M. *P-value<0.05, **P-value<0.01/
(§2) CaMKK2-EGFP transgenic reporter mice were used. Radiation was delivered by a Shepherd Cs^137γ-irradiator at a dose rate of approximately 600 cGy per min. […]
(§3) It was hypothesized that pharmacologic inhibition of CaMKK2 increases survival and HSPC recovery following TBI. […] Next, the effects of STO-609 treatment on HSPC of mice receiving 500 cGy TBI were evaluated. […]

[1] = tested on: 900 cGy TBI wild-type mice; experiment: Survival of lethally irradiated (900 cGy TBI, LD100/15) wild-type mice treated with STO-609; assay type: in vivo; conditions: 10 μM/kg on days 1, 2 and 3 post-TBI, intravenous, vs vehicle, n=10 per group
Method: as §1, §2, §3

SMILES | cell death (ShCamkk2 M1 cells; M1 cells, following radiation or AICAR treatment (data not shown)) | number of live M1 cells (proliferation) after irradiation (ShCamkk2 M1 cells; ShCamkk2 M1 cells, 300 cGy, 24 h, AICAR 100 μM) | HSPC in the BM (HSPC) | total BM cells in the BM (HSPC) | survival following TBI [1]
NC(=O)c1ncn([C@@H]2O[C@H](CO)[C@@H](O)[C@H]2O)c1N [AICAR, 5-aminoimidazole-4-carboxamide 1-β-d-ribofuranoside] | no increase in cell death | reverted the refractory phenotype of ShCamkk2 M1 cells | – | – | –
O=C(O)c1ccc2c3c1cccc3c(=O)n1c3ccccc3nc21 [STO-609, 7H-benzimidazo(2,1-a)benz(de)isoquinoline-7-one-3-carboxylic acid] | – | – | More | More total BM cells | significantly prolonged survival
